Experiments:
Type in all cases: in vivo, human
[1] = system: patients with symptomatic obstructive HCM (oHCM); test: Phase 2 dose finding clinical trial of aficamten in symptomatic oHCM (10 weeks, Cohort 1 and Cohort 2)
From the text: Overall, the incidence of adverse events was similar between treatment arms. […] No new cases of atrial fibrillation were reported by the investigators. In this dose-range finding trial, one patient experienced a transient decrease in left ventricular ejection fraction (LVEF) that required dose adjustment but not dose interruption. […] A multi-center, randomized, placebo-controlled, double-blind, dose finding phase 2 clinical trial of aficamten in patients with symptomatic obstructive HCM (oHCM) was conducted and described as Example 2 in WO 2024/031016 and in U.S. Patent Publication US-2024-0115554-A1, the disclosures of which are incorporated by reference herein.

[2] = system: patients with obstructive hypertrophic cardiomyopathy (oHCM); test: FOREST-HCM: standard of care (SoC) medications withdrawal in oHCM patients treated with aficamten
From the text: Safety and Outcomes of Standard of Care Medications Withdrawal in Patients with Obstructive Hypertrophic Cardiomyopathy (oHCM) Treated with Aficamten in FOREST-HCM Trial. Standard of care (SoC) medications for the treatment of obstructive hypertrophic cardiomyopathy (oHCM) are currently recommended as first-line therapy. There are, however, off-target side-effects that often render them poorly tolerated. Patients were classified as receiving SoC therapy (both first line and second line) if treated with at least one drug (beta-blocker [BB], non-dihydropyridine calcium channel blocker [CCB], and/or disopyramide). Patients were eligible for protocol-guided SoC withdrawal after receiving a stable dose of aficamten for ≥4-weeks and after Week 12 of the study, at the discretion of the site investigator. Successful SoC withdrawal was defined as at least a 50% dose-reduction in one medication relative to baseline. All patients were also required to have ≥1 clinical, echocardiographic and biomarker assessment after attempted withdrawal. Adverse events (AE) were prospectively evaluated 1-2 weeks after any SoC withdrawal. […] Independent of attempted withdrawal, patients maintained relief of obstruction, improvement in symptoms and health status, and low cardiac biomarkers (Table 1). In the group with successful SoC withdrawal, no clinically significant differences were observed between pre and post SoC withdrawal attempt (Table 1). Overall, there was a modest reduction in left ventricular ejection fraction (LVEF) of −3.5%±6.0 from baseline, also with no differences between groups.

[3] = system: patients with symptomatic oHCM; test: SEQUOIA-HCM: patient-reported health status KCCQ-OSS and SAQ-SS
Procedure: Effect of Aficamten on Patient-Reported Health Status in Obstructive Hypertrophic Cardiomyopathy. Participants were randomized to aficamten or placebo with standard-of-care therapy for 24 weeks followed by a 4-week washout period. The Kansas City Cardiomyopathy Questionnaire (KCCQ) and Seattle Angina Questionnaire (SAQ) were administered at each study visit. Changes in mean KCCQ Overall Summary score (KCCQ-OSS) and SAQ Summary score (SAQ-SS) from baseline to week 24 were compared by treatment group using linear regression, adjusting for randomization strata. Proportions of patients with clinically important changes were compared.

[4] = system: patients with symptomatic oHCM; test: SEQUOIA-HCM cardiovascular magnetic resonance (CMR) substudy; settings: Echo Measurements; CMR Cohort N = 57 (Aficamten N = 25); Week 24
[5] = No SoC Withdrawal Group, Post (Week 24)
[6] = No SoC Withdrawal Group, Pre (Week 12)
[7] = No SoC Withdrawal Group, Week 24 vs Week 12
[8] = Successful SoC Withdrawal Group, Post SoC withdrawal
[9] = Successful SoC Withdrawal Group, Pre SoC withdrawal
[10] = Successful SoC Withdrawal Group, post vs pre
[11] = of the 68 who underwent withdrawal attempt
[12] = successful SoC withdrawal cohort vs no SoC withdrawal
[13] = aficamten arm, week 28 compared with week 24

CCc1nc(-c2ccc3c(c2)CC[C@H]3NC(=O)c2cnn(C)c2)no1 [aficamten, (R)—N-(5-(5-ethyl-1,2,4-oxadiazol-3-yl)-2,3-dihydro-1H-inden-1-yl)-1-methyl-1H-pyrazole-4-carboxamide]
tolerability ([1]; 10 weeks treatment): well tolerated | patients achieving target goal of treatment (resting gradient <30 mmHg and post-Valsalva gradient <50 mmHg) ([1]; Cohort 1, Week 10): 78.6% | patients achieving target goal of treatment (resting gradient <30 mmHg and post-Valsalva gradient <50 mmHg) ([1]; Cohort 2, Week 10): 92.9% | LVEF after the end of treatment (reversibility) ([1]; both cohorts): returned towards baseline within two weeks | dose dependence of observed reductions in LVOT-G ([1]; human, in vivo): dose dependent | new cases of atrial fibrillation ([1]; human, in vivo): No new cases | serious adverse events attributed to aficamten ([1]; human, in vivo): No serious adverse events | time of onset of reductions in LVOT-G after initiating treatment ([1]; human, in vivo): within two weeks | KCCQ CSS, Mean (SD) [2, 5]: 88.5 (12.55) | LVEF, Mean (SD) [2, 5]: 64.4 (5.3) % | LVOT-G, Rest, Mean (SD) [2, 5]: 14.0 (12.6) mmHg | LVOT-G, Valsalva, Mean (SD) [2, 5]: 32.2 (25.2) mmHg | NT-proBNP, median [2, 5]: 158.5 pg/mL | NYHA class I [2, 5]: I: 35 (54.7%) n(%) | NYHA class III [2, 5]: III: 2 (3.1%) n(%) | NYHA class IV [2, 5]: IV: 0 n(%) | hs-cardiac-TnI, median [2, 5]: 6.3 ng/L | KCCQ CSS, Mean (SD) [2, 6]: 87.3 (13.12) | LVEF, Mean (SD) [2, 6]: 65.3 (4.9) % | LVOT-G, Rest, Mean (SD) [2, 6]: 19.5 (17.6) mmHg | LVOT-G, Valsalva, Mean (SD) [2, 6]: 42.2 (26.0) mmHg | NT-proBNP, median [2, 6]: 191.5 pg/mL | NYHA class I [2, 6]: I: 34 (53.19%) n(%) | NYHA class III [2, 6]: III: 3 (4,7%) n(%) | NYHA class IV [2, 6]: IV: 0 n(%) | hs-cardiac-TnI, median [2, 6]: 7.6 ng/L | KCCQ CSS, change [2, 7]: 1.2 | LVEF, change [2, 7]: −0.9% | LVOT-G, Rest, change [2, 7]: −5.5 mmHg | LVOT-G, Valsalva, change [2, 7]: −10.0 mmHg | NT-proBNP, change [2, 7]: -3.0 pg/mL | hs-cardiac-TnI, change [2, 7]: -0.5 ng/L | KCCQ CSS, Mean (SD) [2, 8]: 83.8 (18.18) | LVOT-G, Rest, Mean (SD) [2, 8]: 16.6 (13.7) mmHg | LVOT-G, Valsalva, Mean (SD) [2, 8]: 35.6 (29.1) mmHg | NT-proBNP, median [2, 8]: 250.0 pg/mL | NYHA class I [2, 8]: I: 26 (46.4%) n(%) | NYHA class II [2, 8]: II: 26 (46,4%) n(%) | NYHA class III [2, 8]: III: 4 (7.1%) n(%) | NYHA class IV [2, 8]: IV: 0 n(%) | hs-cardiac-TaI, median [2, 8]: 5.8 ng/L | LVEF, Mean (SD) ([2]; Successful SoC Withdrawal Group, Post SoC withdrawal, site read echo): 65.5 (6.4) % | KCCQ CSS, Mean (SD) [2, 9]: 80.2 (17.20) | LVOT-G, Rest, Mean (SD) [2, 9]: 13.2 (11.0) mmHg | LVOT-G, Valsalva, Mean (SD) [2, 9]: 27.9 (22.4) mmHg | NT-proBNP, median [2, 9]: 330.0 pg/mL | NYHA class I [2, 9]: I: 23 (41.1%) n(%) | NYHA class II [2, 9]: II: 25(44.6%) n(%) | NYHA class III [2, 9]: III: 8(14.3%) n(%) | NYHA class IV [2, 9]: IV: 0 n(%) | hs-cardiac-TaI, median [2, 9]: 5.8 ng/L | LVEF, Mean (SD) ([2]; Successful SoC Withdrawal Group, Pre SoC withdrawal, site read echo): 64.8 (5.8) % | KCCQ CSS, change (95% CI) [2, 10]: 3.5 (−0.5, 7.5) | LVEF, change [2, 10]: 0.6% | LVOT-G, Rest, change [2, 10]: 3.4 mmHg | LVOT-G, Valsalva, change (95% CI) [2, 10]: 7.7 (0.8, 14.6), mmHg | NT-proBNP, change [2, 10]: -68.0 pg/mL | hs-cardiac-TaI, change [2, 10]: 0.0 ng/L | monotherapy patients who later restarted a SoC medication ([2]; human, in vivo): 13.2% | serious AEs attributed to SoC withdrawal ([2]; human, in vivo): no serious AEs | patients achieving aficamten monotherapy [2, 11]: 44.1% | patients achieving successful SoC withdrawal (at least 50% dose-reduction in one medication) [2, 11]: 92.6% | patients completely discontinuing at least one SoC medication [2, 11]: 61.8% | reduction in LVEF from baseline (mean±SD) ([2]; overall): −3.5% | KCCQ CSS, Δ change between cohorts at Week 24 [2, 12]: 2.3 | LVEF, Δ change between cohorts at Week 24 [2, 12]: 1.5% | LVOT-G, Rest, Δ change between cohorts at Week 24 [2, 12]: 8.9 mmHg | LVOT-G, Valsalva, Δ change between cohorts at Week 24 [2, 12]: 17.7 mmHg | NT-proBNP, Δ change between cohorts at Week 24 [2, 12]: -65.0 pg/mL | hs-cardiac-TnI, Δ change between cohorts at Week 24 [2, 12]: 0.5 ng/L | change in KCCQ-OSS after treatment withdrawal [3, 13]: −16.2±19.0 | change in SAQ-OSS after treatment withdrawal [3, 13]: −17.4±21.4 | 24-week improvement in KCCQ-OSS (mean±SD) ([3]; aficamten group): 13.3±16.3 | 24-week improvement in SAQ-SS (mean±SD) ([3]; aficamten group): 11.6±17.4 | patients with very large improvements (≥20 points) in KCCQ-OSS ([3]; aficamten-treated, week 24): 29.7% | patients with very large improvements (≥20 points) in SAQ-SS ([3]; aficamten-treated, week 24): 31.2% | heterogeneity of treatment benefit (KCCQ-OS, SAQ-SS) across subgroups incl. beta-blocker use at baseline ([3]; human, in vivo): No heterogeneity of treatment benefit | SAQ-SS improvement with aficamten ([3]; subgroup baseline SAQ-SS 75-100): 4.2 | greater change with aficamten in SAQ-SS ([3]; subgroup baseline SAQ-SS<50): 15.6 points | very large improvement in KCCQ-OSS, NNT ([3]; vs placebo): 5.8 | very large improvement in SAQ-SS, NNT ([3]; vs placebo): 5.8 | LV Mass Index [4]: 120 ± 32 g/m2

Source: US20250295639A1, “METHODS FOR TREATING HEART DISEASES” (Cytokinetics, Incorporated, priority 2024, published 2025)
